Assay results reported in ChEMBL document CHEMBL5528009, “Benzothiozinone derivatives with anti-tubercular Activity-Further side chain investigation” (Eur J Med Chem, 2024).

Key:
[1] = tested on: Mycobacterium tuberculosis; experiment: Antitubercular activity against multidrug-resistant Mycobacterium tuberculosis clinical isolate 16,121; assay type: functional
[2] = tested on: Mycobacterium tuberculosis; experiment: Antitubercular activity against multidrug-resistant Mycobacterium tuberculosis clinical isolate 16,030; assay type: functional

| Structure (SMILES) | MIC [1] [µg/mL] | MIC [2] [µg/mL] |
| --- | --- | --- |
| NNC(=O)c1ccncc1 [ISONIAZID] | > 10 | > 10 |
| CN(CC#Cc1ccccc1)c1nc(=O)c2cc(C(F)(F)F)cc([N+](=O)[O-])c2s1 | < 0.016 | < 0.016 |
| CN(CC#Cc1cscn1)c1nc(=O)c2cc(C(F)(F)F)cc([N+](=O)[O-])c2s1 | < 0.016 | < 0.016 |
| CN(CC#CC1CCCCC1)c1nc(=O)c2cc(C(F)(F)F)cc([N+](=O)[O-])c2s1 | < 0.016 | < 0.016 |
| CO[C@H]1/C=C/O[C@@]2(C)Oc3c(C)c(O)c4c(O)c(c(/C=N/N5CCN(C)CC5)c(O)c4c3C2=O)NC(=O)/C(C)=C\C=C\[C@H](C)[C@H](O)[C@@H](C)[C@@H](O)[C@@H](C)[C@H](OC(C)=O)[C@@H]1C [RIFAMPIN] | > 10 | > 10 |
